Laboratory results published in patent publication US10167259B2, “Allosteric inhibitors of proteasome and methods of use thereof” (THE BOARD OF REGENTS OF THE UNIVERSITY OF TEXAS SYSTEM, priority 2013, dated 2019).

Key:
[1] = test system: core proteasome α face (gate conformers); assay: Atomic force microscopy (AFM) imaging of core proteasome gate conformers; settings: FIG. 1E
[2] = test system: MCF-7 cells; format: cell-based
[3] = test system: proteasome (20S and 26S) in multiple myeloma cells; assay: Proteasome activity in lysates of treated cultured multiple myeloma cells; format: cell-based
[4] = target: core particle (20S) activated by regulatory particle 19S; assay: In vitro activation of the core by purified regulatory particle 19S (26S reconstruction); format: biochemical; settings: FIG. 2E; read-out: IC50, interference with in vitro activation of the core by purified regulatory particle 19S
From the text: (§1) The grooves are utilized by Rpt2, Rpt3 and Rpt5 subunits that anchor the regulatory particle to the core particle (Lander, et al., 2009). The anchoring C-terminal tails of Rpt2 and Rpt5 subunits are responsible for core particle gate opening and activation (Lander, et al., 2009). Activation of the core by both Rpt2 and Rpt5 tails is affected by B1 (FIG. 2C). The groove accommodating the C-terminal tail of Rpt2 subunit may be a primary docking place for B1, or B1 may allosterically affect binding of Rpt2 C-terminal tail with an exceptionally high efficiency (FIG. 2D). In vitro reconstruction of the 26S proteasome assembly from the core particle (20S) and regulatory particle (19S) components is attenuated by the treatment with B1 (FIG. 2E).

[5] = test system: post-glutamyl peptidase of the core particle; assay: Inhibition of post-glutamyl peptidase of the core particle; settings: allosteric, noncompetitive
[6] = target: core proteasome activated by Rpt2 and Rpt5 tail peptides; assay: Blocking activation of core proteasome chymotrypsin-like activity by Rpt2 and Rpt5 tail peptides; format: biochemical
From the text: as §1

[7] = target: mTOR (Homo sapiens, UniProt P42345); assay: mTOR activity in HeLa cells (Western blot with anti-phosphoS6 antibodies); format: cell-based; settings: up to 100 nM, FIG. 3B
[8] = Stability in the presence of cell lysate or purified CP (RP-HPLC); format: in vitro ADME; settings: cell lysate 0.5 mg/ml or purified CP, up to 1 h at 37° C., FIG. 3C
Experimental: (§2) The in vitro effects of the compound B1 are also detectable in cell lysates (FIGS. 3A-E). The total chymotrypsin-like activity of the proteasome in the Mcf7 and Mcf10A lysates was measured. […] Also, B1 appears to be stable in the presence of the whole cell lysate or the purified core particle (FIG. 3C).

[9] = test system: proteasome chymotrypsin-like activity in Mcf7 lysate; assay: Total chymotrypsin-like activity of the proteasome in cell lysates; format: biochemical
Experimental: as §2

[10] = test system: chymotrypsin-like activity of the core particle (CP; 20S); assay: Inhibition of chymotrypsin-like peptidase activity of the proteasome core particle
[11] = test system: MDA-MB-231 cells; format: cell-based
[12] = test system: multiple myeloma RPMI8226 cells; assay: Growth and viability of multiple myeloma RPMI8226 cells; format: cell-based; settings: B1 alone
[13] = target: 26S proteasome assembly; assay: Inhibition of proteinase activity of the 26S proteasome (casein-BODIPY degradation); settings: read-out: IC50, inhibition of proteinase activity of the 26S proteasome assembly; model substrate casein-BODIPY; FIG. 1C
[14] = test system: MCF-10A cells; format: cell-based; settings: 160 nM; FIG. 3D
[15] = test system: polyubiquitinated proteins in MDA-MB-231 cells; assay: Accumulation of polyubiquitinated proteins in treated MDA-MB-231 cells (Western blot, FK-1); format: cell-based; settings: MDA-MB-231, 24 hrs, 160 nM; FIG. 3E
[16] = Solubility in solvents; format: physicochemical
[17] = Chou-Talalay, fraction affected >0.3, mostly 1:1 conc. ratio

COc1cc(CCCOC(=O)C2CCCCN2C(=O)C(=O)C2CCCCC2)cc(OC)c1OC (stereo not drawn) [B1]
Effect on open-gate/closed-gate conformers of the core proteasome (AFM) ([1]; B1 treatment (100 nM)): shift toward higher abundance of the open gate conformers
Content of open-gate conformers in the treated core particle (AFM) [1]: unusually high content of open-gate conformers
Cytotoxicity to MCF-7 cells ([2]; B1 alone, 40 nM, 24 hrs, trypan blue exclusion, FIG. 3D): cytotoxic
Combination Index (CI) with bortezomib, MCF-7 [2, 17]: below 1
Total proteasome activity in lysates of treated cells versus DMSO control ([3]; 50 nM B1, model peptide substrate, FIG. 3F left): lower than in control cells
Partition of activities between core particle (20S) and 26S assembly ([3]; 50 nM B1, non-denaturing gels, FIG. 3F right): shifted in the B1-treated cells toward more of the 20S and less of the 26S proteasomes
IC50 [4]: 0.0078 µM
Effect on post-glutamyl peptidase of the core particle [5]: inhibits
IC50 ([6]; FIG. 2C): ~0.002 µM
Blocking activation of the core by the Rpt2 tail ([6]; tail present at high, micromolar-range concentrations, FIG. 2D): exceptionally effective
Effect on mTOR activity [7]: does not inhibit mTOR activity
Stability in the presence of cell lysate or purified CP [8]: remains intact
Inhibition of total chymotrypsin-like activity of the proteasome in Mcf7 lysate [9]: well pronounced
Combined effect with bortezomib on chymotrypsin-like activity of the core particle ([10]; in vitro, FIG. 1D): synergizes with bortezomib
IC50 ([10]; read-out: IC50, inhibition of chymotrypsin-like activity of the core particle, FIG. 1B): 0.019 µM
Cytotoxicity to MDA-MB-231 cells ([11]; B1 alone, 160 nM, 24 hrs, trypan blue exclusion, FIG. 3D): cytotoxic
Combination Index (CI) with bortezomib, MDA-MB-231 [11, 17]: below 1
Effect on growth of multiple myeloma RPMI8226 cells ([12]; FIG. 3D right): efficiently prevented growth
IC50 ([12]; Homo sapiens, RPMI-8226, FIG. 3D, read-out: IC50, multiple myeloma cultured cells): 0.059 µM
IC50 [13]: 0.041 µM
Cytotoxicity to non-cancerous Mcf10A cells [14]: refractory to the treatment
Polyubiquitinated proteins in lysates of treated cells [15]: accumulation of polyubiquitinated proteins

COc1cc(CCCNC(=O)C2CCCCN2C(=O)C(=O)C2CCCCC2)cc(OC)c1OC (stereo not drawn) [B2]
Soluble in [16]: DMSO, CDCl3
Inhibitory properties toward the core proteasome after modification of B1 [10]: does not erase the inhibitory properties

COc1cc(/C=C/CCCOC(=O)C2CCCCN2C(=O)C(=O)C2CCCCC2)cc(OC)c1OC (stereo not drawn) [B4]
Inhibitory properties toward the core proteasome after modification of B1 [10]: does not erase the inhibitory properties

COc1cc(CCCCCOC(=O)C2CCCCN2C(=O)C(=O)C2CCCCC2)cc(OC)c1OC (stereo not drawn) [B5]
Inhibitory properties toward the core proteasome after modification of B1 [10]: does not erase the inhibitory properties

CO[C@@H](C[C@@H]1CC[C@@H](C)[C@](O)(C(=O)C(=O)N2CCCC[C@H]2C(=O)[O-])O1)/C(C)=C/C=C/C=C/[C@@H](C)C[C@@H](C)C(=O)[C@H](OC)[C@H](O)/C(C)=C/[C@@H](C)C(=O)/C=C/[C@H](C)C[C@@H]1CC[C@@H](O)[C@H](OC)C1.[Na+] [seco-rapamycin, reference compound]
Content of open-gate conformers in the treated core particle (AFM) [1]: unusually high content of open-gate conformers
